The values that follow come from publication PMC4134510 (Journal of medicinal chemistry, 2010).

Series [1] is classed as in vivo. The conditions noted are these: mice, oral once daily.
The nature of series [2]: Pharmacokinetic properties on Balb/C mouse. The following applies: in vivo, oral, 20 mg/kg.
Series [3] addresses T1, PDK1(h) (Homo sapiens, UniProt O15530).
T1 sequence (O15530 1-556): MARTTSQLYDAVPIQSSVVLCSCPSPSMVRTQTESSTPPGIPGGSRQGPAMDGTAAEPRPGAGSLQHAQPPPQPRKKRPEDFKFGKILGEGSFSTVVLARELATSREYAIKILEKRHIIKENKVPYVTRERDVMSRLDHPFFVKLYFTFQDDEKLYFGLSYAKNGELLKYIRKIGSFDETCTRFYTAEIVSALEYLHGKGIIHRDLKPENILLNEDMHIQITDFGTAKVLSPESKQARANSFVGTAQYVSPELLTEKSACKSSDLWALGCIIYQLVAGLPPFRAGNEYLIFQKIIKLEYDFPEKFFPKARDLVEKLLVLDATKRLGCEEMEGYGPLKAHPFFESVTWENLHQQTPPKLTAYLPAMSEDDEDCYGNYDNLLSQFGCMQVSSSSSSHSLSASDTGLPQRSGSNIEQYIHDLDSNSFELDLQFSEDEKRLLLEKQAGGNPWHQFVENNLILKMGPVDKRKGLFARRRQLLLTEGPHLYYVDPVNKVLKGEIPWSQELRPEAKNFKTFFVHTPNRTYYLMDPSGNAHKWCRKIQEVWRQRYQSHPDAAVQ
Kind of series: Kinase selectivity panel, enzymatic activity. Format: biochemical. The following applies: read-out: Enzymatic activity (% inhibition): PDK1(h).

Some results are limits rather than exact numbers.

By AUC is commonly meant the area under the concentration-time curve, a measure of exposure. A low value points to less exposure. As usually defined, the inhibition is how much of the control response was suppressed.

For `Cc1ccc(Nc2ncc3c(n2)N(C)C(=O)N(c2cc(NC(=O)c4cccc(C(F)(F)F)c4)ccc2C)C3)cn1` [GNF-7], the body weight change result in series [1] (10 mg/kg dosing group) is on record as “only a very small weight change”. This molecule also displayed a body weight loss in series [1] (doses of 20 mg/kg and above) of over 10%. The molecule further yielded an AUC in series [2] of 26.7 µM·h. Also, the inhibition at 10 µM in series [3] is 0%.
